# Target: SARS-CoV-2 3CL-protease (Severe acute respiratory syndrome coronavirus 2 (2019-nCoV) (SARS-CoV-2), UniProt P0DTD1)
# Test: SARS-CoV-2 3C-like (3CL) protease fluorescence assay (FRET)
# Format: biochemical
# Conditions: recombinant SARS-CoV-2 3CL-protease 10 nM, 30 min preincubation, peptide substrate, duplicate
row,Structure (SMILES),IC50 [nM]
1,"CC(C)C[C@H](C(=O)Nc1cc(F)cc(F)c1)C(=O)N(C)[C@@H](CC(C)C)C(=O)N1C[C@]2(C[C@H]1C#N)C(=O)Nc1ccccc12 (single isomer, unassigned) [Compound 4]",< 100
2,CC(C)C[C@@H](C(=O)N1C[C@]2(C[C@H]1C#N)C(=O)Nc1ccccc12)N(C)C(=O)CC(=O)Nc1ccc(F)cc1F [Compound 1],< 100
3,CC(C)CC(C(=O)Nc1cc(F)cc(F)c1)C(=O)N(C)[C@@H](CC(C)C)C(=O)N1C[C@]2(C[C@H]1C(N)=O)C(=O)Nc1ccccc12 (stereo partly shown) [Compound 2],< 100
4,CC(C)C[C@@H](C(=O)N1C[C@]2(C[C@H]1C#N)C(=O)Nc1ccccc12)N(C)C(=O)CC(=O)OC(C)(C)C [Compound 5],< 100
5,CC(C)C[C@@H](C(=O)N1C[C@]2(C[C@H]1C#N)C(=O)Nc1ccccc12)N(C)C(=O)CC(=O)c1cc2c(F)cc(F)cc2[nH]1 [Compound 6],< 100
6,CC(C)C[C@@H](C(=O)N1C[C@]2(C[C@H]1C#N)C(=O)Nc1ccccc12)N(C)C(=O)C(C)(C)C(=O)O [Compound 7],> 1000
7,CC(C)C[C@@H](C(=O)N1C[C@]2(C[C@H]1C#N)C(=O)Nc1ccccc12)N(C)C(=O)C(C)(C)C(=O)Nc1cc(F)ccc1F [Compound 8],100 to 1000
8,Cc1cccc(C)c1NC(=O)C(C)(C)C(=O)N(C)[C@@H](CC(C)C)C(=O)N1C[C@]2(C[C@H]1C#N)C(=O)Nc1ccccc12 [Compound 9],100 to 1000
9,Cc1cccc(C)c1NC(=O)CC(=O)N(C)[C@@H](CC(C)C)C(=O)N1C[C@]2(C[C@H]1C#N)C(=O)Nc1ccccc12 [Compound 10],< 100
10,CC(C)(C)C[C@H](NC(=O)C(C)(C)C(=O)Nc1cc(F)ccc1F)C(=O)N1C[C@]2(C[C@H]1C#N)C(=O)Nc1ccccc12 [Compound 11],< 100
11,Cc1cccc(C)c1NC(=O)C(C)(C)C(=O)N[C@@H](CC(C)(C)C)C(=O)N1C[C@]2(C[C@H]1C#N)C(=O)Nc1ccccc12 [Compound 12],< 100
12,Cc1cccc(C)c1NS(=O)(=O)CC(=O)N(C)[C@@H](CC(C)C)C(=O)N1C[C@]2(C[C@H]1C#N)C(=O)Nc1ccccc12 [Compound 13],< 100
13,Cc1cccc(C)c1NC(=O)CS(=O)(=O)N(C)[C@@H](CC(C)(C)C)C(=O)N1C[C@]2(C[C@H]1C#N)C(=O)Nc1ccccc12 [Compound 14],< 100
14,CC(C)C[C@@H](C(=O)N1C[C@]2(C[C@H]1C#N)C(=O)Nc1ccccc12)N(C)C(=O)CC(=O)NCC(C)(C)O [Compound 15],< 100
15,CC(C)C[C@@H](C(=O)N1C[C@]2(C[C@H]1C#N)C(=O)Nc1ccccc12)N(C)C(=O)CC(=O)Nc1ccccc1 [Compound 16],< 100
16,CC(C)C[C@@H](C(=O)N1C[C@]2(C[C@H]1C#N)C(=O)Nc1ccccc12)N(C)C(=O)CC(=O)NCc1ccccc1 [Compound 17],< 100
17,CC(C)C[C@@H](C(=O)N1C[C@]2(C[C@H]1C#N)C(=O)Nc1ccccc12)N(C)C(=O)CC(=O)N[C@H](C)c1ccccc1 [Compound 18],< 100
18,CC(C)C[C@@H](C(=O)N1C[C@]2(C[C@H]1C#N)C(=O)Nc1ccccc12)N(C)C(=O)CC(=O)Nc1cccc2ccccc12 [Compound 19],< 100
19,CC(C)C[C@@H](C(=O)N1C[C@]2(C[C@H]1C#N)C(=O)Nc1ccccc12)N(C)C(=O)CC(=O)N[C@@H](C)c1ccccc1 [Compound 20],100 to 1000
20,CC(C)C[C@@H](C(=O)N1C[C@]2(C[C@H]1C#N)C(=O)Nc1ccccc12)N(C)C(=O)CC(=O)Nc1ccccn1 [Compound 21],< 100
21,CC(C)C[C@@H](C(=O)N1C[C@]2(C[C@H]1C#N)C(=O)Nc1ccccc12)N(C)C(=O)CC(=O)Nc1cccnc1 [Compound 22],< 100
22,CC(C)C[C@@H](C(=O)N1C[C@]2(C[C@H]1C#N)C(=O)Nc1ccccc12)N(C)C(=O)CC(=O)Nc1ccncc1 [Compound 23],< 100
23,CC(C)C[C@@H](C(=O)N1C[C@]2(C[C@H]1C#N)C(=O)Nc1ccccc12)N(C)C(=O)CC(=O)Nc1ccccc1F [Compound 24],< 100
24,CC(C)C[C@@H](C(=O)N1C[C@]2(C[C@H]1C#N)C(=O)Nc1ccccc12)N(C)C(=O)CC(=O)Nc1cccc(F)c1 [Compound 25],< 100

row,Structure (SMILES),IC50 [nM]
1,CC(C)C[C@@H](C(=O)N1C[C@]2(C[C@H]1C#N)C(=O)Nc1ccccc12)N(C)C(=O)CC(=O)Nc1ccc(F)cc1 [Compound 26],< 100
2,CC(C)C[C@@H](C(=O)N1C[C@]2(C[C@H]1C#N)C(=O)Nc1ccccc12)N(C)C(=O)CC(=O)Nc1cn[nH]c1 [Compound 27],< 100
3,Cc1cccc(C)c1NC(=O)C1(C(=O)N[C@@H](CC(C)(C)C)C(=O)N2C[C@]3(C[C@H]2C#N)C(=O)Nc2ccccc23)CC1 [Compound 29],< 100
4,Cc1cccc(C)c1NC(=O)C1(C(=O)N[C@@H](CC(C)C)C(=O)N2C[C@]3(C[C@H]2C#N)C(=O)Nc2ccccc23)CCCC1 [Compound 30],< 100
5,CC(C)C[C@@H](C(=O)N1C[C@]2(C[C@H]1C#N)C(=O)Nc1ccccc12)N(C)C(=O)CC(=O)NC[C@H](C)O [Compound 31],< 100
6,CC(C)C[C@@H](C(=O)N1C[C@]2(C[C@H]1C#N)C(=O)Nc1ccccc12)N(C)C(=O)CC(=O)NC[C@@H](C)O [Compound 32],< 100
7,CC(C)C[C@@H](C(=O)N1C[C@]2(C[C@H]1C#N)C(=O)Nc1ccccc12)N(C)C(=O)CC(=O)N[C@H](C)CO [Compound 33],< 100
8,CC(C)C[C@@H](C(=O)N1C[C@]2(C[C@H]1C#N)C(=O)Nc1ccccc12)N(C)C(=O)CC(=O)N[C@@H](C)CO [Compound 34],< 100
9,CC(C)C[C@@H](C(=O)N1C[C@]2(C[C@H]1C#N)C(=O)Nc1ccccc12)N(C)C(=O)CC(=O)NCC(F)F [Compound 35],< 100
10,CC(C)C[C@@H](C(=O)N1C[C@]2(C[C@H]1C#N)C(=O)Nc1ccccc12)N(C)C(=O)CC(=O)N[C@@H]1CCN(C(=O)OC(C)(C)C)C1 [Compound 36],100 to 1000
11,CC(C)C[C@@H](C(=O)N1C[C@]2(C[C@H]1C#N)C(=O)Nc1ccccc12)N(C)C(=O)CC(=O)N[C@H]1CCN(C(=O)OC(C)(C)C)C1 [Compound 37],< 100
12,Cc1cccc(C)c1NC(=O)C1(C(=O)N[C@@H](CC(C)C)C(=O)N2C[C@]3(C[C@H]2C#N)C(=O)Nc2ccccc23)CCOCC1 [Compound 38],< 100
13,CC(C)C[C@H](NC(=O)C1(C(=O)NCC(C)(C)O)CCC1)C(=O)N1C[C@]2(C[C@H]1C#N)C(=O)Nc1ccccc12 [Compound 39],< 100
14,Cc1cccc(C)c1NC(=O)C1(C(=O)N[C@@H](CC(C)(C)C)C(=O)N2C[C@]3(C[C@H]2C#N)C(=O)Nc2ccccc23)CCOCC1 [Compound 40],< 100
15,CC(C)C[C@@H](C(=O)N1C[C@]2(C[C@H]1C#N)C(=O)Nc1ccccc12)N(C)C(=O)CC(=O)N[C@@H]1CCC[C@@H]1O [Compound 41],< 100
16,CC(C)C[C@@H](C(=O)N1C[C@]2(C[C@H]1C#N)C(=O)Nc1ccccc12)N(C)C(=O)CC(=O)N[C@H]1CCC[C@@H]1O [Compound 42],< 100
17,CC(C)C[C@@H](C(=O)N1C[C@]2(C[C@H]1C#N)C(=O)Nc1ccccc12)N(C)C(=O)CC(=O)N[C@@H]1CCC[C@H]1O [Compound 43],< 100
18,CC(C)C[C@@H](C(=O)N1C[C@]2(C[C@H]1C#N)C(=O)Nc1ccccc12)N(C)C(=O)CC(=O)N[C@H]1CCC[C@H]1O [Compound 44],< 100
19,CC(C)C[C@@H](C(=O)N1C[C@]2(C[C@H]1C#N)C(=O)Nc1ccccc12)N(C)C(=O)CC(=O)N[C@@H]1CC[C@H](O)C1 [Compound 45],< 100
20,CC(C)C[C@@H](C(=O)N1C[C@]2(C[C@H]1C#N)C(=O)Nc1ccccc12)N(C)C(=O)CC(=O)N[C@H]1CC[C@H](O)C1 [Compound 46],< 100
21,CC(C)C[C@@H](C(=O)N1C[C@]2(C[C@H]1C#N)C(=O)Nc1ccccc12)N(C)C(=O)CC(=O)N[C@@H]1CC[C@@H](O)C1 [Compound 47],< 100
22,CC(C)C[C@@H](C(=O)N1C[C@]2(C[C@H]1C#N)C(=O)Nc1ccccc12)N(C)C(=O)CC(=O)N[C@H]1CC[C@@H](O)C1 [Compound 48],< 100
23,CC(C)C[C@@H](C(=O)N1C[C@]2(C[C@H]1C#N)C(=O)Nc1ccccc12)N(C)C(=O)CC(=O)N[C@@H](C)C(F)(F)F [Compound 49],< 100
24,CC(C)C[C@@H](C(=O)N1C[C@]2(C[C@H]1C#N)C(=O)Nc1ccccc12)N(C)C(=O)CC(=O)N[C@H](C)C(F)(F)F [Compound 50],< 100

# Tested on: 229E human corona virus (hCoV)
# Test: 229E live virus assay (CPE, ATPlite) in MRC-5 cells
# Format: cell-based, hCoV-229E
# Conditions: Human coronavirus 229E, MRC5, 144 h, read-out: 229E EC50
row,Structure (SMILES),EC50 [nM]
1,"CC(C)C[C@H](C(=O)Nc1cc(F)cc(F)c1)C(=O)N(C)[C@@H](CC(C)C)C(=O)N1C[C@]2(C[C@H]1C#N)C(=O)Nc1ccccc12 (single isomer, unassigned) [Compound 4]",< 100
2,CC(C)C[C@@H](C(=O)Nc1cc(F)cc(F)c1)C(=O)N(C)[C@@H](CC(C)C)C(=O)N1C[C@]2(C[C@H]1C#N)C(=O)Nc1ccccc12 [Compound 3],100 to 1000

# Same assay, conditions: Human coronavirus 229E, MRC5, 144 h; MRC-5 cells, MOI 0.05, 6 days at 34° C., ATPlite readout, duplicate; read-out: 229E EC50
row,Structure (SMILES),EC50 [nM]
1,CC(C)C[C@@H](C(=O)N1C[C@]2(C[C@H]1C#N)C(=O)Nc1ccccc12)N(C)C(=O)CC(=O)Nc1ccc(F)cc1F [Compound 1],< 100
2,CC(C)CC(C(=O)Nc1cc(F)cc(F)c1)C(=O)N(C)[C@@H](CC(C)C)C(=O)N1C[C@]2(C[C@H]1C(N)=O)C(=O)Nc1ccccc12 (stereo partly shown) [Compound 2],100 to 1000
3,CC(C)C[C@@H](C(=O)N1C[C@]2(C[C@H]1C#N)C(=O)Nc1ccccc12)N(C)C(=O)CC(=O)OC(C)(C)C [Compound 5],< 100
4,CC(C)C[C@@H](C(=O)N1C[C@]2(C[C@H]1C#N)C(=O)Nc1ccccc12)N(C)C(=O)CC(=O)c1cc2c(F)cc(F)cc2[nH]1 [Compound 6],< 100
5,CC(C)(C)C[C@H](NC(=O)C(C)(C)C(=O)Nc1cc(F)ccc1F)C(=O)N1C[C@]2(C[C@H]1C#N)C(=O)Nc1ccccc12 [Compound 11],100 to 1000

# Reference: patent US11912714B2, “Spiropyrrolidine derived antiviral agents” (ENANTA PHARMACEUTICALS, INC., priority 2021, dated 2024)
